Experimental data published in patent US7615361B2, “Toxicity screening methods” (Ceetox, Inc., priority 2006, dated 2009).
≈ marks a conversion by molar mass, not a printed value. Where two headings read alike, the source gives them in different places.

Assays:
[1] = Intracellular total glutathione (GSH); type: cell-based, rat; settings: rat; H4IIE, 24 HR; read-out: Total GSH TC50
How it was run: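 Rat hepatoma H4IIE cells were exposed to compound in dosing solutions made in complete culture medium, then harvested for biochemical measurement of intracellular total glutathione as an oxidative-stress marker. Values are exposure-group means, n=3-7.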

[2] = MemTox membrane leakage (AK / α-GST); type: cell-based, rat; settings: rat cardiomyocytes (CM), 24 HR exposure; read-out: MemTox TC50
How it was run: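 Neonatal rat cardiomyocytes were dosed, and the culture medium was collected at the end of exposure to measure total leaked adenylate kinase (luminescence) and/or α-GST (ELISA, 450/650 nm). Percent dead cells was set against 1 mM digitonin as maximum release, then converted to percent live. Values are means of n=3-7.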

[3] = Solubility in culture medium (nephelometry); type: physicochemical; settings: 37 °C, plasma or biological fluid, kinetic from dmso stock
Method: Solubility: The test compounds were prepared in DMSO and the appropriate amounts were then added to complete medium containing 10% bovine serum […] at 37° C. The samples were evaluated using a light scattering technique and a Nephaloskan instrument.
Solubility Assay: The test compounds were prepared in DMSO and the appropriate amounts were then added to complete medium containing 10% bovine serum at 37° C. The samples were evaluated using a light scattering technique and a Nephaloskan instrument.

[4] = tested on: H4IIE cells; test: Predicted Ctox from Tox-Panel; type: cell-based, rat; settings: 24 HR, estimated sustained plasma concentration where toxicity would be expected in vivo
How it was run: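 Ctox is taken as the NOEL from 24 h concentration-response profiles in H4IIE cells, covering at least cell replication, mitochondrial function and membrane integrity. Each indicator is expressed as a percentage of the compound-free control. It estimates the sustained toxic plasma concentration in vivo.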

[5] = Intracellular ATP levels; type: cell-based, rat; settings: rat cardiomyocytes (CM), 24 HR exposure; read-out: ATP TC50
How it was run: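 Neonatal rat cardiomyocytes exposed to the compound; cellular ATP measured by luciferin/luciferase luminescence after lysis with an ATPase-inhibiting reagent, quantified against an ATP calibration curve in matching matrix (pmol ATP/million cells). Background-corrected luminescence expressed as percent of control; means of n=3-7.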

Molecule `C=C(C)[C@H]1Cc2c(ccc3c2O[C@@H]2COc4cc(OC)c(OC)cc4[C@@H]2C3=O)O1` [ROTENONE, Rotenone] has a CC50 at 24 h [1] of 0.05 µM, a CC50 at 24 h [2] of 56 µM and a solubility ([3]; culture media containing 20% serum, NRK 6 HR, read-out: Highest Soluble Concentration) of 10 µM (≈ 3.94 µg/mL). For the same molecule, the solubility ([3]; culture media containing 20% serum, NRK 24 HR, read-out: Highest Soluble Concentration) was 10 µM (≈ 3.94 µg/mL), the solubility ([3]; dosing medium with 20% serum, 37° C., CM 24 HR, read-out: Highest Soluble Concentration Tested) was 100 µM (≈ 39.4 µg/mL) and the solubility ([3]; dosing medium with 20% serum, 37° C., H4IIE 24 HR, read-out: Highest Soluble Concentration Tested) was 100 µM (≈ 39.4 µg/mL). For the same molecule, the solubility ([3]; dosing medium, 37° C., C32 24 HR, read-out: Highest Soluble Concentration) was 10 µM (≈ 3.94 µg/mL), the solubility ([3]; dosing medium, 37° C., HUVEC 24 HR, read-out: Highest Soluble Concentration) was 10 µM (≈ 3.94 µg/mL) and the solubility ([3]; dosing medium, 37° C., NHEM 24 HR, read-out: Highest Soluble Concentration) was 100 µM (≈ 39.4 µg/mL). It also gave a solubility ([3]; dosing medium, 37° C., SK-MEL28 24 HR, run #2, read-out: Highest Soluble Concentration) of 100 µM (≈ 39.4 µg/mL), a solubility ([3]; dosing medium, 37° C., SK-MEL28 24 HR, read-out: Highest Soluble Concentration) of 10 µM (≈ 3.94 µg/mL) and a solubility ([3]; dosing medium, 37° C., SK-MEL28 72 HR, run #2, read-out: Highest Soluble Concentration) of 100 µM (≈ 39.4 µg/mL). For the same molecule, the solubility ([3]; dosing medium, 37° C., human hepatocytes 24 HR, read-out: Highest Soluble Concentration) was 10 µM (≈ 3.94 µg/mL), the “Predicted Ctox” value [4] was 0.03 µM and the CC50 at 24 h [5] was 8 µM.
